Results reported in patent publication US20150322051A1, “Macrocyclic picolinamides as fungicides” (Dow AgroSciences LLC, priority 2014, published 2015).
Where two headings read alike, the source gives them in different places.

What was measured:
[1] = tested on: Mycosphaerella graminicola; anamorph: Septoria tritici (SEPTTR); assay: Leaf blotch of wheat (SEPTTR) whole-plant fungicidal test; assay type: in vivo; settings: Zymoseptoria tritici, topical, low volume (track spray) application, 121.5 g/H
Method: (§1) All fungicides were evaluated using the aforementioned method for their activity vs. all target diseases, unless stated otherwise. Wheat leaf blotch and brown rust activity were also evaluated using track spray applications, in which case the fungicides were formulated as EC formulations, containing 0.1% Trycol 5941 in the spray solutions. Wheat plants (variety Yuma) were grown from seed in a greenhouse in 50% mineral soil/50% soil-less Metro mix until the first leaf was fully emerged, with 7-10 seedlings per pot. These plants were inoculated with an aqueous spore suspension of Septoria tritici either prior to or after fungicide treatments. After inoculation the plants were kept in 100% relative humidity (one day in a dark dew chamber followed by two to three days in a lighted dew chamber at 20° C.) to permit spores to germinate and infect the leaf. The plants were then transferred to a greenhouse set at 20° C. for disease to develop. When disease symptoms were fully expressed on the 1st leaves of untreated plants, infection levels were assessed on a scale of 0 to 100 percent disease severity. Percent disease control was calculated using the ratio of disease severity on treated plants relative to untreated plants.

[2] = tested on: Puccinia triticina; synonym: Puccinia recondita f. sp. tritici (PUCCRT); assay: Wheat brown rust (PUCCRT) whole-plant fungicidal test; assay type: in vivo; settings: topical, low volume (track spray) application, 121.5 g/H
Method: as §1, with “plants. Wheat plants (variety Yuma) were grown from seed in a greenhouse in 50% mineral soil/50% soil-less Metro mix until the first leaf was fully emerged, with 7-10 seedlings per pot. These plants were inoculated with an aqueous spore suspension of Puccinia triticina either prior to or after fungicide treatments. […] The plants were then transferred to a greenhouse set at 24° C. for disease to develop. Fungicide formulation, application and disease assessment followed the procedures as described in the Example A.” for “plants.”

[3] = 24 h, 1 Day Protectant, read-out: Low Volume activity at 121.5 g/H SEPTTR 1DP (% disease control rating)
[4] = 72 h, 3 Day Curative, read-out: Low Volume activity at 121.5 g/H SEPTTR 3DC (% disease control rating)
[5] = 24 h, 1 Day Protectant, read-out: Low Volume activity at 121.5 g/H PUCCRT 1DP (% disease control rating)
[6] = 72 h, 3 Day Curative, read-out: Low Volume activity at 121.5 g/H PUCCRT 3DC (% disease control rating)

SMILES	pest or weed control at 121.5 g/ha [1, 3]	pest or weed control at 121.5 g/ha [1, 4]	pest or weed control at 121.5 g/ha [2, 5]	pest or weed control at 121.5 g/ha [2, 6]
COc1ccnc(C(=O)N[C@H]2CCC[C@H](Cc3ccc(C(F)(F)F)cc3)[C@@H](Cc3ccccc3)[C@H](C)OC2=O)c1OCOC(=O)C(C)C [Compound 27]	> 70%	< 70%	> 70%	< 70%
COc1ccnc(C(=O)N[C@H]2CCC[C@H](Cc3ccc(Cl)cc3)[C@@H](C3CCCC3)[C@H](C)OC2=O)c1OC(C)=O [Compound 28]	> 70%	> 70%	> 70%	< 70%
COc1ccnc(C(=O)N[C@H]2CCC[C@H](Cc3ccc(Cl)cc3)[C@@H](C3CCCC3)[C@H](C)OC2=O)c1OCOC(C)=O [Compound 29]	> 70%	> 70%	> 70%	< 70%
COc1ccnc(C(=O)N[C@H]2CCC[C@H](Cc3ccc(Cl)cc3)[C@@H](C3CCCC3)[C@H](C)OC2=O)c1OCOC(=O)C(C)C [Compound 30]	> 70%	> 70%	< 70%	< 70%
CCOCC(=O)OCOc1c(OC)ccnc1C(=O)N[C@H]1CCC[C@H](Cc2ccc(Cl)cc2)[C@@H](C2CCCC2)[C@H](C)OC1=O [Compound 31]	> 70%	> 70%	> 70%	< 70%
COc1ccnc(C(=O)N[C@H]2CCC[C@H](CCCc3ccccc3)[C@@H](CCc3ccccc3)[C@H](C)OC2=O)c1OCOC(C)=O [Compound 32]	> 70%	< 70%	> 70%	< 70%
COc1ccnc(C(=O)N[C@H]2CCC[C@H](CCCc3ccccc3)[C@@H](CCc3ccccc3)[C@H](C)OC2=O)c1OC(C)=O [Compound 33]	> 70%	< 70%	< 70%	< 70%
COc1ccnc(C(=O)N[C@H]2CCC[C@H](CCC(C)C)[C@@H](CCc3ccccc3)[C@H](C)OC2=O)c1OCOC(C)=O [Compound 34]	> 70%	> 70%	> 70%	< 70%
CCOCC(=O)OCOc1c(OC)ccnc1C(=O)N[C@H]1CCC[C@H](CCC(C)C)[C@@H](CCc2ccccc2)[C@H](C)OC1=O [Compound 35]	> 70%	> 70%	> 70%	< 70%
COc1ccnc(C(=O)N[C@H]2CCC[C@H](CCC(C)C)[C@@H](CCc3ccccc3)[C@H](C)OC2=O)c1OC(C)=O [Compound 36]	> 70%	> 70%	> 70%	< 70%
CCC[C@H]1CCC[C@H](NC(=O)c2nccc(OC)c2OCOC(C)=O)C(=O)O[C@@H](C)[C@@H]1Cc1ccccc1 [Compound 37]	> 70%	> 70%	> 70%	> 70%
CCC[C@H]1CCC[C@H](NC(=O)c2nccc(OC)c2OC(C)=O)C(=O)O[C@@H](C)[C@@H]1Cc1ccccc1 [Compound 38]	> 70%	> 70%	> 70%	> 70%
COc1ccnc(C(=O)N[C@H]2CCC[C@H](Cc3ccc(C(F)(F)F)cc3)[C@@H](Cc3ccc(F)cc3)[C@H](C)OC2=O)c1OCOC(C)=O [Compound 39]	> 70%	> 70%	< 70%	< 70%
